Laboratory results: ChEMBL document CHEMBL5260825, “Chemical Constituents of Bryophytes: Structures and Biological Activity” (J Nat Prod, 2018)
pIC50: −log10 of the molar value. In brackets after ≈: the same amount, converted by molar mass.

Experiments:
Cladosporium cucumerinum = experiment: Antifungal activity against Cladosporium cucumerinum assessed as inhibition of microbial growth by bioautographic TLC method; type: functional
Candida albicans [1] = experiment: Antifungal activity against Candida albicans assessed as inhibition of fungal growth by bioautographic TLC method; type: functional
Candida albicans [2] = experiment: Antifungal activity against Candida albican ATCC10231 assessed as inhibition of fungal growth by microdilution method; type: functional
Candida albicans [3] = experiment: Antifungal activity against Candida albican ATCC10231 assessed as inhibition of fungal growth by measuring minimal inhibitory quantity by microdilution method; type: functional
Rattus norvegicus = species on record: Rattus norvegicus; experiment: Inhibition of iron-induced lipid peroxidation in rat liver microsomes in presence of NADPH; type: functional, Microsome
[4] = test system: Human immunodeficiency virus 1; experiment: Antiviral activity against HIV-1; type: functional, organism-based
[5] = target: T1, Polyunsaturated fatty acid 5-lipoxygenase (Homo sapiens) (UniProt P09917); experiment: Inhibition of ALOX5 (unknown origin) at 0.000001 M relative to control; settings: dose 1 µM
T1 sequence (whole entry): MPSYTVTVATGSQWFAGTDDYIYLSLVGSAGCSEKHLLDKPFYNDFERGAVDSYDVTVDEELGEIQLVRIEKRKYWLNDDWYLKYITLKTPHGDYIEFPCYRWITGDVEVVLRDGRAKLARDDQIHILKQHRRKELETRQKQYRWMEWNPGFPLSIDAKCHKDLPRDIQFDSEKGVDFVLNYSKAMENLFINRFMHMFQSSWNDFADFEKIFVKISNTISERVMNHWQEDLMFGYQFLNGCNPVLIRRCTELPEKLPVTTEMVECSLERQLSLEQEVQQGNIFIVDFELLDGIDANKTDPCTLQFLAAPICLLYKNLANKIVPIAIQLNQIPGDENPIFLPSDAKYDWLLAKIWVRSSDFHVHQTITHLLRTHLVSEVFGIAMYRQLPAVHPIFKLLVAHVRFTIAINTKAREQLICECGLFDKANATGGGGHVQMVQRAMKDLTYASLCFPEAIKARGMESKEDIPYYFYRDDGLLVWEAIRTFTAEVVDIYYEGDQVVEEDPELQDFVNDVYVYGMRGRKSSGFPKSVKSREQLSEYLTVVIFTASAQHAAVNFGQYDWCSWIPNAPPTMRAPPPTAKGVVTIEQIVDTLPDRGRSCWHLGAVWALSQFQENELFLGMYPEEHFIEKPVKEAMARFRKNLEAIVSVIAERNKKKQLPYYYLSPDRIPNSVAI

DNA polymerase beta = DNA polymerase beta (Homo sapiens, UniProt P06746); experiment: Inhibition of DNA polymerase beta (unknown origin)
[6] = test system: Trichostrongylus colubriformis; experiment: Anthelmintic activity against third stage larvae of Trichostrongylus colubriformis at 0.6 mg/ml by microscope based analysis relative to control; type: functional
[7] = test system: Trichostrongylus colubriformis; experiment: Anthelmintic activity against third stage larvae of Trichostrongylus colubriformis by microscope based analysis; type: functional, organism-based
Cyclooxygenase = Cyclooxygenase (Homo sapiens, UniProt P35354+P23219); experiment: Inhibition of COX (unknown origin); type: protein assay
Candida albicans [8] = experiment: Antifungal activity against Candida albicans assessed as inhibition of fungal growth by MTT assay; type: functional
KB = experiment: Antiproliferative activity against human KB cells assessed as cell growth inhibition; type: functional, cell-based
[9] = test system: Peritoneal macrophage cell; experiment: Inhibition of superoxide anion radical release in guinea pig peritoneal macrophages; type: functional, cell-based; settings: Cavia porcellus
[10] = target: Cathepsin B (Homo sapiens) (UniProt P07858); experiment: Inhibition of Cathepsin B (unknown origin) at 0.00001 M relative to control; settings: dose 10 µM
[11] = Inhibition of superoxide anion radical release in rabbit polymorphonuclear leucocytes; type: functional, cell-based; settings: Oryctolagus cuniculus, Polymorphonuclear neutrophil
[12] = target: Procathepsin L (Homo sapiens) (UniProt P07711); experiment: Inhibition of Cathepsin L (unknown origin) at 0.00001 M relative to control; settings: dose 10 µM
ZR-75-1 = experiment: Antiproliferative activity against human ZR-75-1 cells assessed as cell growth inhibition; type: functional, cell-based
[13] = Antiproliferative activity against human KBV cells assessed as cell growth inhibition; type: functional, cell-based
[14] = Antiproliferative activity against human Lu1 cells assessed as cell growth inhibition; type: functional, cell-based
Streptococcus mutans = experiment: Antibacterial activity against Streptococcus mutans assessed as lethal dose; type: functional; settings: read-out: LD50 (the source's name)
LNCaP = experiment: Antiproliferative activity against human LNCaP cells assessed as cell growth inhibition; type: functional, cell-based
Botrytis cinerea = experiment: Antifungal activity against Botrytis cinerea assessed as inhibition of microbial growth by microtiter plate based analysis; type: functional, organism-based
Zymoseptoria tritici = experiment: Antifungal activity against Zymoseptoria tritici assessed as inhibition of microbial growth by microtiter plate based analysis; type: functional, organism-based
Pyricularia oryzae = experiment: Antifungal activity against Pyricularia oryzae assessed as inhibition of microbial growth by microtiter plate based analysis; type: functional, organism-based
[15] = target: T1, Polyunsaturated fatty acid 5-lipoxygenase (Homo sapiens); experiment: Inhibition of ALOX5 (unknown origin) assessed as reduction in calmodulin level
[16] = test system: Trypanosoma brucei brucei; experiment: Antitrypanosomal activity against bloodstream Trypanosoma brucei brucei assessed as parasite growth inhibition measured after 72 hrs by alamar blue assay; type: functional, organism-based
Homo sapiens = species on record: Homo sapiens; experiment: Antagonist activity at vasopressin (unknown origin); settings: filed as antagonist
[17] = test system: Trichostrongylus colubriformis; experiment: Anthelmintic activity against third stage larvae of Trichostrongylus colubriformis at 0.7 mg/ml by microscope based analysis relative to control; type: functional

Chain of Procathepsin L (Homo sapiens) (P07711 114-333 limits assumed): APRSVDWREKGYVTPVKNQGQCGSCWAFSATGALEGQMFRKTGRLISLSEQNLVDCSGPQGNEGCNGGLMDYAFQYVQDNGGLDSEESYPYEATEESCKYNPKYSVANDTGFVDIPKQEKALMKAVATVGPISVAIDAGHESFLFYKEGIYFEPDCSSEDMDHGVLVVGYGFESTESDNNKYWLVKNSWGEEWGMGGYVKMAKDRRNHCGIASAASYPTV

C=C1CC[C@H]2C(=C)CC[C@H]3C(=C)C(=O)O[C@@H]3[C@@H]12 [DEHYDROCOSTUSLACTONE]
MIC (Cladosporium cucumerinum): 0.5 µg/mL | MIC (Candida albicans [1]): 5 µg/mL (≈ 21.7 µM)

Oc1cc2ccc1Oc1cccc(c1)CCc1ccc(cc1)Oc1cc(ccc1O)CC2
MIC (Candida albicans [2]): 16 µg/mL | MIC (Candida albicans [3]): 0.25 µg

Oc1ccc2cc1Oc1ccc(cc1)CCc1cc(O)c(O)c(c1)Oc1cccc(c1)CC2
pIC50 (Rattus norvegicus): 6.49

Oc1cc2cc(c1O)Oc1ccc(cc1)CCc1cccc(O)c1Oc1cccc(c1)CC2O (stereo unspecified)
IC50 [4]: 5.3 µg/mL (≈ 11.6 µM) | inhibition [5]: 4% | pIC50 (DNA polymerase beta): 4.84

COc1cccc(CCc2ccc(O)cc2)c1
inhibition at 600 µg/mL [6]: 85% | IC50 [7]: 130 µg/mL (≈ 569 µM)

Oc1cc2cc(c1O)Oc1ccc(cc1)CCc1ccc(O)c(O)c1Oc1cccc(c1)CC2 [MARCHANTIN B]
IC50 [4]: 5.3 µg/mL (≈ 11.6 µM) | IC50 (Cyclooxygenase): 55.9 µM | MID (Candida albicans [8]): 4 µg/mL | pIC50 (DNA polymerase beta): 4.84 | pIC50 (KB): 5.49

C=CC(=C)CC[C@]1(C)[C@H]2CCC=C(C)[C@]2(C)CC[C@H]1C(=O)O
IC50 [9]: 25 µg/mL (≈ 82.7 µM) | inhibition [10]: 32% | IC50 [11]: 0.07 µg/mL (≈ 0.231 µM) | inhibition [12]: 63%

CC(C)=CCC[C@]1(C)CCC[C@]2(C)[C@@H](C=O)C(C=O)=CC[C@@H]12
pIC50 (ZR-75-1): 5.24 | pIC50 [13]: 5.57 | pIC50 [14]: 5.24 | LC50 (Streptococcus mutans): 8 µg/mL (≈ 26.4 µM) | pIC50 (LNCaP): 5.24 | pIC50 (KB): 5.49

Oc1ccc2c(c1)CCc1ccc(O)c(c1)-c1cc(cc(Cl)c1O)/C=C(/Cl)c1ccc-2c(O)c1
IC50 (Botrytis cinerea): 7.6 µg/mL | IC50 (Zymoseptoria tritici): 15.9 µg/mL | IC50 (Pyricularia oryzae): 3.9 µg/mL

C=C(C)[C@H]1Cc2c(CCc3ccccc3)cc(O)c(O)c2O1
ID50 [15]: 2 µg/mL (≈ 6.75 µM) | IC50 (Cyclooxygenase): 26.2 µM | IC50 [16]: 0.44 µg/mL (≈ 1.48 µM)

CC(C)=CCc1c(CCc2ccccc2)cc(O)c(O)c1O
ID50 (Homo sapiens): 27 µg/mL (≈ 90.5 µM) | ID50 [15]: 2 µg/mL (≈ 6.7 µM)

Oc1ccc2c(c1)CCc1ccc(O)c(c1)Oc1ccc(cc1)CCc1cccc(c1)O2 [PTYCHANOL A]
MIC (Candida albicans [2]): 16 µg/mL | MIC (Candida albicans [3]): 0.25 µg

COc1ccc(CCc2cccc(OC)c2)cc1
inhibition at 700 µg/mL [17]: 85%
